Assay results reported in patent US8735406B2, “8-oxodihydropurine derivative” (Dainippon Sumitomo Pharma Co., Ltd., priority 2009, dated 2014).
Structures can show the parent of a compound that is named as a salt. Where two headings read alike, the source gives them in different places.

Molecular target: T1, FAAH (Rattus norvegicus, UniProt P97612)
T1 construct: Preparation of Rat Brain Membranes Preparations (FAAH Enzyme Solution); from tissue; host or cells: rat cerebrum (brain membrane preparation)
T1 sequence (P97612 1-579): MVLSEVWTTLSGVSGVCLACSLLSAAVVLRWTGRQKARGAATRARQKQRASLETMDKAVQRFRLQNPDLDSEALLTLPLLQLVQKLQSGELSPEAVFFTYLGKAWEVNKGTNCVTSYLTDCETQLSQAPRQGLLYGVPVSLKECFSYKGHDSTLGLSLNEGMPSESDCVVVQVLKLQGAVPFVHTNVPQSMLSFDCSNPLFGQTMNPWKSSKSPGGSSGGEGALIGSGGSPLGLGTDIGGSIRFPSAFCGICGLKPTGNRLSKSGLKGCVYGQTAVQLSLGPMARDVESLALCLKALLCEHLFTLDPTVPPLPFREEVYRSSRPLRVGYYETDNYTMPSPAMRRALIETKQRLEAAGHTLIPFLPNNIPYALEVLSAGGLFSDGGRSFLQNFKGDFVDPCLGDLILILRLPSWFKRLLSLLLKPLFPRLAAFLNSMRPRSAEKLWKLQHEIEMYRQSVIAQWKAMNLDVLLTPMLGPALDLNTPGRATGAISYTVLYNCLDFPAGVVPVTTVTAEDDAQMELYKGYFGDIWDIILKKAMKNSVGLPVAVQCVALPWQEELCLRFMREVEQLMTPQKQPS
Assay: Determination of FAAH inhibitory activity in rat (rat brain membrane preparations, [3H]-anandamide hydrolysis)
Type: biochemical
Conditions: for IC50: read-out: FAAH Inhibition IC50
Outline: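 Compounds tested from 0.1 nM to 1 μM to derive IC50 against FAAH hydrolysis in rat brain membrane preparations (100 μg/mL). A 10-min 37 °C preincubation was followed by 10 min with [3H]-anandamide (2 nM) mixed with 2 μM unlabelled anandamide. Radioactive ethanolamine was extracted into the water/methanol layer and counted.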

[1] = rat brain membrane preparations, 100 nM test substance, read-out: FAAH Inhibition, Inhibition Rate at 100 nM
[2] = rat brain membrane preparations, test substance 0.1 nM to 1 μM
[3] = at 100 nM, rat brain membrane preparations, read-out: FAAH Inhibition Inhibition Rate at 100 nM
[4] = rat brain membrane preparations

| inhibition at 0.1 µM [1] [%] | IC50 [2] [nM] | Compound | other results |
| --- | --- | --- | --- |
| 91 | 43 | Cn1c(=O)n(C(=O)N2CCCC2)c2nc(Cc3ccc(F)cc3)ncc21 [Example 295, 2-(4-Fluorobenzyl)-7-methyl-9-(pyrrolidin-1-ylcarbonyl)-7,9-dihydro-8H-purine-8-one] |  |
| 97 | 34 | Cn1c(=O)n(C(=O)N2CCCC2)c2nc(-c3ccc(F)cc3)ncc21 [Example 227, 2-(4-Fluorophenyl)-7-methyl-9-(pyrrolidin-1-ylcarbonyl)-7,9-dihydro-8H-purine-8-one] |  |
|  |  | CN(C)C(=O)n1c(=O)n(C)c2cnc(CCOc3ccc(C(F)(F)F)cc3)nc21 [Example 638, N,N,7-trimethyl-8-oxo-2-{2-[4-(trifluoromethyl)phenoxy]ethyl}-7,8-dihydro-9H-purine-9-carboxamide hydrochloric acid salt] | inhibition at 0.1 µM [3]: 95%; IC50 [4]: 12 nM |
| 57 | 75 | Cc1ccccc1CCc1ncc2c(n1)n(C(=O)N1CCC1)c(=O)n2C [compound 591] |  |
|  |  | CN(C)C(=O)n1c(=O)n(C)c2cnc(CCCc3ccccc3)nc21 [Example 614] | inhibition at 0.1 µM [3]: 81%; IC50 [4]: 28 nM |
| 99 | 15 | COCc1ncc2c(n1)n(C)c(=O)n2C(=O)N1CC[C@@H](Oc2cccc(Cl)c2)C1 [Example 487, 7-{[(3R)-3-(3-Chlorophenoxy)pyrrolidin-1-yl]carbonyl}-2-(methoxymethyl)-9-methyl-7,9-dihydro-8H-purine-8-one] |  |
| 78 | 32 | CN(C)C(=O)n1c(=O)n(C)c2cnc(CCCOc3cccc(F)c3)nc21 [Example 395] |  |
|  |  | CCc1ncc2c(n1)n(C)c(=O)n2C(=O)N1CC(c2ccccc2)C1 [compound 627] | inhibition at 0.1 µM [3]: 107%; IC50 [4]: 4 nM |
| 92 | 17 | CN(C)C(=O)n1c(=O)n(C)c2cnc(CCc3cccc(C(F)(F)F)c3)nc21 [compound 539] |  |
| 67 | 69 | COc1ccccc1-c1ncc2c(n1)n(C)c(=O)n2C(=O)N1CCCC1 [compound 172] |  |
| 98 | 7 | Cc1cccc(N2CCN(C(=O)n3c(=O)n(C)c4nc(-c5ccccc5)ncc43)CC2)c1 [Example 129, 9-Methyl-7-{[4-(3-methylphenyl)piperazin-1-yl]carbonyl}-2-phenyl-7,9-dihydro-8H-purine-8-one] |  |
| 99 | 23 | Cn1c(=O)n(C(=O)N2CCCC2)c2cnc(Cc3cc(F)ccc3F)nc21 [Example 267, 2-(2,5-Difluorobenzyl)-9-methyl-7-(pyrrolidin-1-ylcarbonyl)-7,9-dihydro-8H-purine-8-one] |  |
| 99 | 17 | Cn1c(=O)n(C(=O)N2CCC2)c2nc(-c3ccc(OCC(F)F)cc3)ncc21 [compound 368] |  |
| 102 | 11 | Cc1ccc(CCc2ncc3c(n2)n(C(=O)N(C)C)c(=O)n3C)cc1C [compound 510] |  |
| 99 | 21 | CCOc1cccc(-c2ncc3c(n2)n(C(=O)N2CCC2)c(=O)n3C)c1 [compound 346] |  |
| 80 | 58 | Cn1c(=O)n(C(=O)N2CCCC2)c2nc(/C=C/c3ccc(F)cc3)ncc21 [Example 245, 2-[(E)-2-(4-Fluorophenyl)ethenyl]-7-methyl-9-(pyrrolidin-1-ylcarbonyl)-7,9-dihydro-8H-purine-8-one] |  |
| 97 | 29 | Cn1c(=O)n(C(=O)N2CCCCC2)c2cnc(-c3ccccc3)nc21 [Example 24, 9-Methyl-2-phenyl-7-(piperidin-1-ylcarbonyl)-7,9-dihydro-8H-purine-8-one] |  |
| 113 | 8 | COCCOCc1ncc2c(n1)n(C)c(=O)n2C(=O)N1CC(c2cccc(F)c2)C1 [compound 473] |  |
| 108 | 1 | COc1cccc(-c2ncc3c(n2)n(C)c(=O)n3C(=O)N(C)CCc2ccc(Cl)c(Cl)c2)c1 [Example 105, N-[2-(3,4-Dichlorophenyl)ethyl]-2-(3-methoxyphenyl)-N,9-dimethyl-8-oxo-8,9-dihydro-7H-purine-7-carboxamide] |  |

| inhibition at 0.1 µM [1] [%] | IC50 [2] [nM] | Compound | other results |
| --- | --- | --- | --- |
| 47 | 131 | CCOc1cccc(CCc2ncc3c(n2)n(C(=O)N(C)C)c(=O)n3C)c1 [compound 534] |  |
| 86 | 59 | Cn1c(=O)n(C(=O)N2CCCC2)c2nc(Cc3cccc(F)c3)ncc21 [Example 286, 2-(3-Fluorobenzyl)-7-methyl-9-(pyrrolidin-1-ylcarbonyl)-7,9-dihydro-8H-purine-8-one] |  |
| 100 | 5 | Cn1c(=O)n(C(=O)N2CCCC2)c2cnc(Cc3ccccc3)nc21 [Example 253, 2-benzyl-9-methyl-7-(pyrrolidin-1-ylcarbonyl)-7,9-dihydro-8H-purine-8-one] |  |
| 96 | 10 | CCOCc1ncc2c(n1)n(C)c(=O)n2C(=O)N1CC(c2ccccc2F)C1 [Example 465, 2-(Ethoxymethyl)-7-{[3-(2-fluorophenyl)azetidin-1-yl]carbonyl}-9-methyl-7,9-dihydro-8H-purine-8-one] |  |
| 98 | 14 | CCN(C)C(=O)n1c(=O)n(C)c2nc(Cc3ccc(C)cc3)ncc21 [Example 281, N-Ethyl-N,9-dimethyl-2-(4-methylbenzyl)-8-oxo-8,9-dihydro-7H-purine-7-carboxamide] |  |
| 102 | 42 | CCOc1cc(F)cc(-c2ncc3c(n2)n(C)c(=O)n3C(=O)N2CCCC2)c1 [compound 193] |  |
| 98 | 11 | Cc1ccc(CCc2ncc3c(n2)n(C(=O)N(C)C)c(=O)n3C)cc1 [Example 494, N,N,7-Trimethyl-2-[2-(4-methylphenyl)ethyl]-8-oxo-7,8-dihydro-9H-purine-9-carboxamide] |  |
| 90 | 17 | Cn1c(=O)n(C(=O)N2CCC2)c2cnc(Cc3ccc(F)cc3)nc21 [compound 373] |  |
| 96 | 10 | COCc1ncc2c(n1)n(C)c(=O)n2C(=O)N1CC(c2ccccc2OC)C1 [compound 457] |  |
| 46 |  | COCc1ncc2c(n1)n(C)c(=O)n2C(=O)N1CC[C@@H](Oc2cccc(C)c2)C1 [Example 475] |  |
| 100 | 10 | CCc1cccc(CCc2ncc3c(n2)n(C(=O)N(C)C)c(=O)n3C)c1 [compound 516] |  |
| 103 | 24 | Cn1c(=O)n(C(=O)N2CCCC2)c2cnc(-c3cccnc3F)nc21 [compound 209] |  |
| 74 | 39 | COCc1ncc2c(n1)n(C)c(=O)n2C(=O)N1CC(c2ccc(C)cc2)C1 [compound 452] |  |
| 61 | 81 | CCN(C)C(=O)n1c(=O)n(C)c2nc(C3CC3)ncc21 [Example 159] |  |
| 90 | 53 | Cc1ccc(-c2ncc3c(n2)n(C(=O)N2CCCC2)c(=O)n3C)cc1 [Example 229, 7-Methyl-2-(4-methylphenyl)-9-(pyrrolidin-1-ylcarbonyl)-7,9-dihydro-8H-purine-8-one] |  |
| 88 | 83 | COCc1ncc2c(n1)n(C)c(=O)n2C(=O)N1CC[C@@H](Oc2ccc(F)cc2)C1 [Example 480, 7-{[(3R)-3-(4-Fluorophenoxy)pyrrolidin-1-yl]carbonyl}-2-(methoxymethyl)-9-methyl-7,9-dihydro-8H-purine-8-one] |  |
| 95 | 28 | CN(C)C(=O)n1c(=O)n(C)c2cnc(CCc3ccc(F)c(C4CC4)c3)nc21 [compound 527] |  |
|  | 25 | CN(C)C(=O)n1c(=O)n(C)c2cnc(CCc3cc(F)cc(F)c3)nc21 [Example 497, 2-[2-(3,5-Difluorophenyl)ethyl]-N,N,7-trimethyl-8-oxo-7,8-dihydro-9H-purine-9-carboxamide] | FAAH Inhibition, Inhibition Rate at 100 nM (rat brain membrane preparations, 100 nM test substance, 0.1 µM): 94% |
| 96 | 29 | COc1ccc(Cc2ncc3c(n2)n(C(=O)N2CCCC2)c(=O)n3C)cc1 [Example 287, 2-(4-Methoxybenzyl)-7-methyl-9-(pyrrolidin-1-ylcarbonyl)-7,9-dihydro-8H-purine-8-one] |  |

| Compound | inhibition at 0.1 µM [1] [%] | IC50 [2] [nM] | other results |
| --- | --- | --- | --- |
| COc1cccc(-c2ncc3c(n2)n(C)c(=O)n3C(=O)N(C)CCc2ccc(F)cc2)c1 [Example 74, N-[2-(4-Fluorophenyl)ethyl]-2-(3-methoxyphenyl)-N,9-dimethyl-8-oxo-8,9-dihydro-7H-purine-7-carboxamide] |  | < 1 | inhibition at 0.1 µM (read-out: FAAH Inhibition, Inhibition Rate at 100 nM): 104% |
